{"source": "paper PMC9133015", "about": "(Nature Communications, 2022)", "assay_in_all_cases": "Kinase inhibitor specificity profiling (Reaction Biology Corporation)", "type_in_all_cases": "biochemical", "set-up_in_all_cases": "% Enzyme Activity (relative to DMSO controls): concentration or dose not given beside the values", "key": {"[1]": {"target": "T1, panel of 370 protein kinases (Homo sapiens, UniProt Q08881)", "T1 construct": "purchased Reaction Biology Corporation (assay service)", "T1 sequence (Q08881 whole entry)": "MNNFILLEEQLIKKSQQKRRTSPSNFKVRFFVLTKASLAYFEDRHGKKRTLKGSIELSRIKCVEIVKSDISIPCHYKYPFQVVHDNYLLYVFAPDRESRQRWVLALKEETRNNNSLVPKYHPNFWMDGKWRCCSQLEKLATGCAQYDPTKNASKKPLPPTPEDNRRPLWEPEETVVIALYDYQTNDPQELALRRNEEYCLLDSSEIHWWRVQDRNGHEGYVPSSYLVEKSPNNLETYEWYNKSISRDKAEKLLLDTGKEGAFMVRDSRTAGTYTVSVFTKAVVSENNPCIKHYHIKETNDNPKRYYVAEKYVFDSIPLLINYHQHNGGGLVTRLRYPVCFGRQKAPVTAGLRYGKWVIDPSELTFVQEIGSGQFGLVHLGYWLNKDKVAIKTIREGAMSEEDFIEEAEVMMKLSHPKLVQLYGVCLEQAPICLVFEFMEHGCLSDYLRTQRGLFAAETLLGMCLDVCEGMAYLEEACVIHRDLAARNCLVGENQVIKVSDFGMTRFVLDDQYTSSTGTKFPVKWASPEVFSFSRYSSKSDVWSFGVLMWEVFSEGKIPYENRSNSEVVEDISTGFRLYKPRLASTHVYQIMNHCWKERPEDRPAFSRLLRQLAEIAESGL", "conditions": "kinase ITK"}, "[2]": {"target": "T2, panel of 370 protein kinases (Homo sapiens, UniProt P20794)", "T2 construct": "purchased Reaction Biology Corporation (assay service)", "T2 sequence (P20794 whole entry)": "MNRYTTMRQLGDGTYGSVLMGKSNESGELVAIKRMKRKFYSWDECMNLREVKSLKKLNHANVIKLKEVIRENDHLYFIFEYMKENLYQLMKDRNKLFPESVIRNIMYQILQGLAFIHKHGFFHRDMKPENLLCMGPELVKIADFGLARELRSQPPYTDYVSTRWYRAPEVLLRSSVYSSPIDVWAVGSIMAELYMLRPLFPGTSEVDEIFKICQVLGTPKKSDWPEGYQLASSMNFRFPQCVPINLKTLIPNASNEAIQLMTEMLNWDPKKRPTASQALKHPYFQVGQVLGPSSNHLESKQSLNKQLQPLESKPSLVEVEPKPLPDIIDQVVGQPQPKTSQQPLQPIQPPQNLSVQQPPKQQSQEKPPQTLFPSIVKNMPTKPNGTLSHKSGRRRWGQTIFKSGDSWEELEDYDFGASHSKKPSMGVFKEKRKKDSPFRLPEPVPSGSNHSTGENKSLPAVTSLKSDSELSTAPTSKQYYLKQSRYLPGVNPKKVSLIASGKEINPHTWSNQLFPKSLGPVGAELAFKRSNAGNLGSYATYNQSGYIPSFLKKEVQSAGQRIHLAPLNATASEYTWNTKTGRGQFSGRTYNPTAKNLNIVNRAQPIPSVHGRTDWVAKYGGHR", "conditions": "2 h, kinase MAK; read-out: % Enzyme Activity (relative to DMSO controls)"}, "[3]": {"target": "T3, panel of 370 protein kinases (Homo sapiens, UniProt Q16513)", "T3 construct": "purchased Reaction Biology Corporation (assay service)", "conditions": "2 h, kinase PKN2/PRK2; read-out: % Enzyme Activity (relative to DMSO controls)"}, "[4]": {"target": "T4, panel of 370 protein kinases (Homo sapiens, UniProt Q86UE8)", "T4 construct": "purchased Reaction Biology Corporation (assay service)", "conditions": "2 h, kinase TLK2; read-out: % Enzyme Activity (relative to DMSO controls)"}, "[5]": {"target": "T5, panel of 370 protein kinases (Homo sapiens, UniProt P46734)", "T5 construct": "purchased Reaction Biology Corporation (assay service)", "T5 sequence (P46734 whole entry)": "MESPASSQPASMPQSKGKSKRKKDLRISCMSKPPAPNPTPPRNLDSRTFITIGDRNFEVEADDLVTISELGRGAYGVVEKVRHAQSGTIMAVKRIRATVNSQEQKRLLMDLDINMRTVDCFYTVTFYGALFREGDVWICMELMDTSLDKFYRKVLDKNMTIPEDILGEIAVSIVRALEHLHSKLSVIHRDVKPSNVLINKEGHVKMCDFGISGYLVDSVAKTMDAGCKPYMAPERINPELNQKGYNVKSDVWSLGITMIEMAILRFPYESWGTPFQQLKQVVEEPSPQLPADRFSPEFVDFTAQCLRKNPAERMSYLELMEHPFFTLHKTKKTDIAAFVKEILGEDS", "conditions": "2 h, kinase MEK3; read-out: % Enzyme Activity (relative to DMSO controls)"}, "[6]": {"target": "T6, panel of 370 protein kinases (Homo sapiens, UniProt P49761)", "T6 construct": "purchased Reaction Biology Corporation (assay service)", "T6 sequence (P49761 whole entry)": "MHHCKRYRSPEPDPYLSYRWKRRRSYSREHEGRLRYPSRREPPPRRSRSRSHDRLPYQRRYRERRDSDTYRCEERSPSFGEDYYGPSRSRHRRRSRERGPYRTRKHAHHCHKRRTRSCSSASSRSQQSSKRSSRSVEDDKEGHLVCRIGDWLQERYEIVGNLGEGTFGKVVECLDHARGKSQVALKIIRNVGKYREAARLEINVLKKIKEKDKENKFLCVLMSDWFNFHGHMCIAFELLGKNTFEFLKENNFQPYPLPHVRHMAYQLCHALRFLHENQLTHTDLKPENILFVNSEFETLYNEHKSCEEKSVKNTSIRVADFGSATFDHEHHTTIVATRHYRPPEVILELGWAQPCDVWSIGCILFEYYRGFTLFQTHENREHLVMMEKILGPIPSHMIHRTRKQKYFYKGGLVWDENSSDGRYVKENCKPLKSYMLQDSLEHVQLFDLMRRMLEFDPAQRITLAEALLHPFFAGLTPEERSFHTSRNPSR", "conditions": "2 h, kinase CLK3; read-out: % Enzyme Activity (relative to DMSO controls)"}, "[7]": {"target": "T7, panel of 370 protein kinases (Homo sapiens, UniProt P11362)", "T7 construct": "purchased Reaction Biology Corporation (assay service)", "conditions": "2 h, kinase FGFR1; read-out: % Enzyme Activity (relative to DMSO controls)"}, "[8]": {"target": "T8, panel of 370 protein kinases (Homo sapiens, UniProt P07949)", "T8 construct": "purchased Reaction Biology Corporation (assay service)", "conditions": "2 h, kinase RET; read-out: % Enzyme Activity (relative to DMSO controls)"}, "[9]": {"target": "T9, panel of 370 protein kinases (Homo sapiens, UniProt O75385)", "T9 construct": "purchased Reaction Biology Corporation (assay service)", "T9 sequence (O75385 whole entry)": "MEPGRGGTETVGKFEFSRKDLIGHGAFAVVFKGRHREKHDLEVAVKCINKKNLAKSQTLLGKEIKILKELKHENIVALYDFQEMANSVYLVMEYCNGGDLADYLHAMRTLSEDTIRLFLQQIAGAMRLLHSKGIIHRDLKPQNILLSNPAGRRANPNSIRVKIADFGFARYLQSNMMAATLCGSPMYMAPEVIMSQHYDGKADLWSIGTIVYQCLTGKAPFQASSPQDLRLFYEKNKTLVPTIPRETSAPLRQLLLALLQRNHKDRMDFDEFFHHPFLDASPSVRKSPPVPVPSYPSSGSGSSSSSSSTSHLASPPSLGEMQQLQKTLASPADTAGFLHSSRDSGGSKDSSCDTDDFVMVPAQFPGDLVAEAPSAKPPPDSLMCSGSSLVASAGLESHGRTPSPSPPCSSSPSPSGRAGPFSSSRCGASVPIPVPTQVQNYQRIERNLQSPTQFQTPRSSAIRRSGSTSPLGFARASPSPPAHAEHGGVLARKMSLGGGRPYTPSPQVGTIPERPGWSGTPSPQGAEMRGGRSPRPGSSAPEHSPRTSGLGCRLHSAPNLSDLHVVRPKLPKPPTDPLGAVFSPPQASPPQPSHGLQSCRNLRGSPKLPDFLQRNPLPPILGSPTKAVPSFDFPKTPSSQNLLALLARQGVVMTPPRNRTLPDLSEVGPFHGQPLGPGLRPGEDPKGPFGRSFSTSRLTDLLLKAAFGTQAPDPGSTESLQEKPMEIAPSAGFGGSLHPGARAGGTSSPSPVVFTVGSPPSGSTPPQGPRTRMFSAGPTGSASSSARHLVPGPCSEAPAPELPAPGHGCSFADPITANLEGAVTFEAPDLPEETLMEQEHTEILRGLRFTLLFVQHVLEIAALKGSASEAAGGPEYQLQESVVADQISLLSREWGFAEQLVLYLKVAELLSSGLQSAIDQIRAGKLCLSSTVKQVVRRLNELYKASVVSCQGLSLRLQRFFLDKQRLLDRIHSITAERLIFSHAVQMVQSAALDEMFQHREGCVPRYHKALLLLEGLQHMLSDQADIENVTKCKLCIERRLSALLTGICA", "conditions": "kinase ULK1"}, "[10]": {"target": "T10, panel of 370 protein kinases (Homo sapiens, UniProt P54764)", "T10 construct": "purchased Reaction Biology Corporation (assay service)", "conditions": "2 h, kinase EPHA4; read-out: % Enzyme Activity (relative to DMSO controls)"}, "[11]": {"target": "T11, panel of 370 protein kinases (Homo sapiens, UniProt Q14164)", "T11 construct": "purchased Reaction Biology Corporation (assay service)", "conditions": "2 h, kinase IKKe/IKBKE; read-out: % Enzyme Activity (relative to DMSO controls)"}, "[12]": {"target": "T12, panel of 370 protein kinases (Homo sapiens, UniProt P49137)", "T12 construct": "purchased Reaction Biology Corporation (assay service)", "conditions": "2 h, kinase MAPKAPK2; read-out: % Enzyme Activity (relative to DMSO controls)"}, "[13]": {"target": "T13, panel of 370 protein kinases (Homo sapiens, UniProt P78362)", "T13 construct": "purchased Reaction Biology Corporation (assay service)", "conditions": "2 h, kinase SRPK2; read-out: % Enzyme Activity (relative to DMSO controls)"}, "[14]": {"target": "T14, panel of 370 protein kinases (Homo sapiens, UniProt Q8TD19)", "T14 construct": "purchased Reaction Biology Corporation (assay service)", "conditions": "2 h, kinase NEK9; read-out: % Enzyme Activity (relative to DMSO controls)"}, "[15]": {"target": "T15, panel of 370 protein kinases (Homo sapiens, UniProt P45985)", "T15 construct": "purchased Reaction Biology Corporation (assay service)", "conditions": "2 h, kinase MKK4; read-out: % Enzyme Activity (relative to DMSO controls)"}, "[16]": {"target": "T16, panel of 370 protein kinases (Homo sapiens, UniProt Q8IY84)", "T16 construct": "purchased Reaction Biology Corporation (assay service)", "T16 sequence (Q8IY84 whole entry)": "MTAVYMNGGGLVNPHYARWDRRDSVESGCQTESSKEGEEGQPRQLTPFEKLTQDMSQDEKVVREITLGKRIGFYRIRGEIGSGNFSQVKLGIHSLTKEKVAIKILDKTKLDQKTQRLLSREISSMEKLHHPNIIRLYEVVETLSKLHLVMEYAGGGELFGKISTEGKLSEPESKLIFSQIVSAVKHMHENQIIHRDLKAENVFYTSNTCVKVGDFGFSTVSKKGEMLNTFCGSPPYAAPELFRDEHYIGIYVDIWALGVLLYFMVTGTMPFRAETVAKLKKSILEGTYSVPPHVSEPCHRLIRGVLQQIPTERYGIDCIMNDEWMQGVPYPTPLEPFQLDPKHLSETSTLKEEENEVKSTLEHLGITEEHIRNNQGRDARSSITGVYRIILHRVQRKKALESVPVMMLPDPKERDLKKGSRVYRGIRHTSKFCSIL", "conditions": "2 h, kinase NIM1; read-out: % Enzyme Activity (relative to DMSO controls)"}, "[17]": {"target": "T17, panel of 370 protein kinases (Homo sapiens, UniProt P43403)", "T17 construct": "purchased Reaction Biology Corporation (assay service)", "conditions": "2 h, kinase ZAP70; read-out: % Enzyme Activity (relative to DMSO controls)"}, "[18]": {"target": "T18, panel of 370 protein kinases (Homo sapiens, UniProt O95747)", "T18 construct": "purchased Reaction Biology Corporation (assay service)", "T18 sequence (O95747 whole entry)": "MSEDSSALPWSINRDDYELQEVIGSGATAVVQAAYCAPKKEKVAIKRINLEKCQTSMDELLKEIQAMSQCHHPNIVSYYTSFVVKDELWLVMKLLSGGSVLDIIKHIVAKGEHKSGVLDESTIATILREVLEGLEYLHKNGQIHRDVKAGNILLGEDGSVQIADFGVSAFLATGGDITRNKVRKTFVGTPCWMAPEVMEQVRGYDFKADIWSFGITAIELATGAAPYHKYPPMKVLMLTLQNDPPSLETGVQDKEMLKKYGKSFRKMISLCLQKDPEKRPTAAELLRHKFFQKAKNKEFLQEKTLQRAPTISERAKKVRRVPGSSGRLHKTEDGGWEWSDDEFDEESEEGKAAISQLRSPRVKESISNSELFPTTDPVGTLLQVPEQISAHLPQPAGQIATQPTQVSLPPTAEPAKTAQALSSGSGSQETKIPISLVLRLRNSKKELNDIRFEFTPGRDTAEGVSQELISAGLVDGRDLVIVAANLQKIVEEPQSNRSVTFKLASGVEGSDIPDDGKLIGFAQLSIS", "conditions": "2 h, kinase OSR1/OXSR1; read-out: % Enzyme Activity (relative to DMSO controls)"}, "[19]": {"target": "T19, panel of 370 protein kinases (Homo sapiens, UniProt O43318)", "T19 construct": "purchased Reaction Biology Corporation (assay service)", "conditions": "2 h, kinase TAK1; read-out: % Enzyme Activity (relative to DMSO controls)"}, "[20]": {"target": "T20, panel of 370 protein kinases (Homo sapiens, UniProt Q06418)", "T20 construct": "purchased Reaction Biology Corporation (assay service)", "conditions": "2 h, kinase TYRO3/SKY; read-out: % Enzyme Activity (relative to DMSO controls)"}, "[21]": {"target": "T21, panel of 370 protein kinases (Homo sapiens, UniProt Q7KZI7)", "T21 construct": "purchased Reaction Biology Corporation (assay service)", "T21 sequence (Q7KZI7 whole entry)": "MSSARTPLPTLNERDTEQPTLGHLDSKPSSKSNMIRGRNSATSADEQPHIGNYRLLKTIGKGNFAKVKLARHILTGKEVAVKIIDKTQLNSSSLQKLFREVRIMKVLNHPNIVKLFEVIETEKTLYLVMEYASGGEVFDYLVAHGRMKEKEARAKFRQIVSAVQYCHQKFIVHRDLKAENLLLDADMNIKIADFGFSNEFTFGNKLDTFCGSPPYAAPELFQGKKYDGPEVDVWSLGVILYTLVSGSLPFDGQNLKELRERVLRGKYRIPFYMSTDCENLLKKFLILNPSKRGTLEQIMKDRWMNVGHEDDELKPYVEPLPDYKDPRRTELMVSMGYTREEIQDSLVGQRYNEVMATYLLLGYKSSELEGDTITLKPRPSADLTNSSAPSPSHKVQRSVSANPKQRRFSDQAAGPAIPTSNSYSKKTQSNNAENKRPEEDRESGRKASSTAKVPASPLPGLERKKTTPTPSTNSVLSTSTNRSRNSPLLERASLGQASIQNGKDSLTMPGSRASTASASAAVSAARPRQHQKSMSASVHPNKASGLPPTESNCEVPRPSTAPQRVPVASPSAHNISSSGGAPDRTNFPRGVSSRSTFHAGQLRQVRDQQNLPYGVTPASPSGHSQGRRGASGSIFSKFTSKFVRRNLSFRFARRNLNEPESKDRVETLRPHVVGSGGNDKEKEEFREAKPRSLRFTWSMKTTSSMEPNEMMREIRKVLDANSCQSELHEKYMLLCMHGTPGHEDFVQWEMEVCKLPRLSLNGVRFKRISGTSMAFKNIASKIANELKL", "conditions": "2 h, kinase MARK2/PAR-1Ba; read-out: % Enzyme Activity (relative to DMSO controls)"}}, "note": "Values joined by “and” are separate entries in the source; they are usually repeats but may differ in a detail not shown here. Identical values can stand only once."}
{"smiles": "CCN1CCN(C(=O)c2ccc(Nc3ncc(F)c(-c4ccc5nc(N(C)C)sc5c4)n3)nc2)CC1", "note": "[YK-2-69]", "values": [{"measurement": "% Enzyme Activity (relative to DMSO controls)", "setting": "[1]", "value": "117.90% and 109.49%"}, {"measurement": "remaining activity at 1 µM", "setting": "[2]", "value": 71.7, "unit": "%"}, {"measurement": "remaining activity at 1 µM", "setting": "[3]", "value": 88.4, "unit": "%"}, {"measurement": "remaining activity at 1 µM", "setting": "[4]", "value": 91.4, "unit": "%"}, {"measurement": "remaining activity at 1 µM", "setting": "[5]", "value": 103, "unit": "%"}, {"measurement": "remaining activity at 1 µM", "setting": "[6]", "value": 80.5, "unit": "%"}, {"measurement": "remaining activity at 1 µM", "setting": "[7]", "value": 76.5, "unit": "%"}, {"measurement": "remaining activity at 1 µM", "setting": "[8]", "value": 88.1, "unit": "%"}, {"measurement": "% Enzyme Activity (relative to DMSO controls)", "setting": "[9]", "value": "101.30% and 99.93%"}, {"measurement": "remaining activity at 1 µM", "setting": "[10]", "value": 70.2, "unit": "%"}, {"measurement": "remaining activity at 1 µM", "setting": "[11]", "value": 98.5, "unit": "%"}, {"measurement": "remaining activity at 1 µM", "setting": "[12]", "value": 83.2, "unit": "%"}, {"measurement": "remaining activity at 1 µM", "setting": "[13]", "value": 89.3, "unit": "%"}, {"measurement": "remaining activity at 1 µM", "setting": "[14]", "value": 105, "unit": "%"}, {"measurement": "remaining activity at 1 µM", "setting": "[15]", "value": 87.2, "unit": "%"}, {"measurement": "remaining activity at 1 µM", "setting": "[16]", "value": 96.9, "unit": "%"}, {"measurement": "remaining activity at 1 µM", "setting": "[17]", "value": 87.8, "unit": "%"}, {"measurement": "remaining activity at 1 µM", "setting": "[18]", "value": 89.2, "unit": "%"}, {"measurement": "remaining activity at 1 µM", "setting": "[19]", "value": 103, "unit": "%"}, {"measurement": "remaining activity at 1 µM", "setting": "[20]", "value": 96.6, "unit": "%"}, {"measurement": "remaining activity at 1 µM", "setting": "[21]", "value": 83.2, "unit": "%"}]}
